In patent US7326703B2, “(1,10B-Dihydro-2-(aminocarbonyl-phenyl)-5H-pyrazolo[1,5-c][1,3]benzoxazin-5-yl)phenyl methanone derivatives as HIV viral replication inhibitors” (priority 2004, dated 2008):
Read-outs that look alike come from different tables or passages of the source.

How the values were obtained:
HIV-1 strain LAI = experiment: Cellular anti-viral assay in MT4-LTR-EGFP cells, wild type HIV-1 strain LAI; assay type: cell-based; details: Human immunodeficiency virus 1, 72 h, read-out: Activity class for HIV-1-LAI test
Procedure: (§1) The compounds were tested in a cellular assay using the MT4-LTR-EGFP cells for anti-viral activity. […] The cellular assay was performed according to the following procedure.
(§2) HIV- or mock-infected MT4-LTR-EGFP cells were incubated for three days in the presence of various concentrations of the inhibitor. Upon infection, the GFP reporter is activated by the viral tat protein. At the end of the incubation period, the GFP signal was measured. In the virus control samples (in the absence of any inhibitor) the maximal fluorescent signal was obtained. The inhibitory activity of the compound was monitored on the virus-infected cells and was expressed as EC50 and EC90. These values represent the amount of the compound required to protect 50% and 90%, respectively, of the cells from virus infection. The toxicity of the compound was measured on the mock-infected cells and was expressed as CC50, which represents the concentration of compound required to inhibit the growth of the cells by 50%. The selectivity index (SI) (ratio CC50/EC50) is an indication of the selectivity of the anti-HIV activity of the inhibitor.

HIV-1-MDR = experiment: Cellular anti-viral assay in MT4-LTR-EGFP cells, multi-drug resistant HIV-1 virus; assay type: cell-based; details: Human immunodeficiency virus 1, 72 h, read-out: Activity class for HIV-1-MDR test
Procedure: as §1, §2

[1] = MT4-LTR-EGFP cells, three days incubation, GFP signal, average EC50 used where more than one run

Row | SMILES | EC50 (HIV-1 strain LAI) | EC50 (HIV-1-MDR) | EC50 (HIV-1 strain LAI; [1])
1 | N#Cc1ccc(C(=O)C2Oc3ccccc3C3CC(c4ccc(C(=O)NC5CCCC5)cc4)=NN23)cc1 (stereo not shown) [Compound 44, 4-[5-(4-Cyano-Benzoyl)-1,10b-Dihydro-5H-Pyrazolo[1,5-c][1,3]Benzoxazin-2-yl]-N-Cyclopentyl-Benzamide] | < 1 µM | < 1 µM | 
2 | CCCc1ccc(C(=O)C2Oc3ccccc3C3CC(c4ccc(C(=O)NC5CCCC5)cc4)=NN23)cc1 (stereo not shown) [Compound 45] |  | < 1 µM | < 1 µM
3 | CSc1ccc(C(=O)C2Oc3ccccc3C3CC(c4ccc(C(=O)NC5CCCC5)cc4)=NN23)cc1 (stereo not shown) [Compound 46] |  | < 1 µM | < 1 µM
4 | CCc1ccc(C(=O)C2Oc3ccccc3C3CC(c4ccc(C(=O)NC5CCCC5)cc4)=NN23)cc1 (stereo not shown) [Compound 47] |  | < 1 µM | < 1 µM
5 | O=C(NC1CCCC1)c1ccc(C2=NN3C(C(=O)c4ccc(N5CCOCC5)cc4)Oc4ccccc4C3C2)cc1 (stereo not shown) [Compound 48] |  | 1 to 10 µM | 1 to 10 µM
6 | CC(C)(C)c1ccc(C(=O)C2Oc3ccccc3C3CC(c4ccc(C(=O)NC5CCCC5)cc4)=NN23)cc1 (stereo not shown) [Compound 50] |  | < 1 µM | < 1 µM
7 | O=C(NC1CCCC1)c1ccc(C2=NN3C(C(=O)c4ccc([N+](=O)[O-])cc4)Oc4ccccc4C3C2)cc1 (stereo not shown) [Compound 52] |  | < 1 µM | < 1 µM
8 | CS(=O)(=O)c1ccc(C(=O)C2Oc3ccccc3C3CC(c4ccc(C(=O)NC5CCCC5)cc4)=NN23)cc1 (stereo not shown) [Compound 53] |  | < 1 µM | < 1 µM
9 | O=C(NC1CCCC1)c1ccc(C2=NN3C(C(=O)c4ccc(C5CCCCC5)cc4)Oc4ccccc4C3C2)cc1 (stereo not shown) [Compound 54] |  | 1 to 10 µM | 1 to 10 µM
10 | O=C(NC1CCCC1)c1ccc(C2=NN3C(C(=O)c4ccc(C(F)(F)F)cc4)Oc4ccccc4C3C2)cc1 (stereo not shown) [Compound 55] |  | < 1 µM | < 1 µM
11 | O=C(NC1CCCC1)c1ccc(C2=NN3C(C(=O)c4cccc(Br)c4)Oc4ccccc4C3C2)cc1 (stereo not shown) [Compound 58] |  | < 1 µM | < 1 µM
